The structures appear in SMILES notation.

In the assay the target is GST-tagged truncated human mutant G2019S LRRK2 (Homo sapiens, UniProt Q5S007, G2019S). Nature of the assay: LRRK2 G2019S Km ATP LanthaScreen assay. The class given is biochemical. The following applies: 134 μM ATP (Km ATP), LRRKtide substrate, mean IC50 values; read-out: LRRK2 pIC50 (converted). In outline: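 Compound preincubated 15 min at room temperature with enzyme in pH 8.5 Tris buffer (10 mM MgCl2). Then a 90 min reaction at ambient temperature with 134 μM (Km) ATP and fluorescein-LRRKtide. EDTA stop, Tb anti-phospho antibody TR-FRET; […]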
For orientation: Time-resolved FRET reads energy transfer from a long-lived donor to a nearby acceptor.
On to `OCC1CCN(c2cc3nc(Nc4cnn(CC(F)F)c4Cl)ncc3cc2Cl)C1` (centres unmarked) [Ex-1.15, [1-(6-chloro-2-{[5-chloro-1-(2,2-difluoroethyl)-1H-pyrazol-4-yl]amino}quinazolin-7-yl)pyrrolidin-3-yl]methanol], for which the IC50 is 5.49 nM.
In the case of `FC(F)Cn1ncc(Nc2ncc3cc(Cl)c(N4CCC(N5CCCC5)CC4)cc3n2)c1Cl` [Ex-1.16, 6-chloro-N-[5-chloro-1-(2,2-difluoroethyl)-1H-pyrazol-4-yl]-7-[4-(pyrrolidin-1-yl)piperidin-1-yl]quinazolin-2-amine] it was 16 nM.
The value for `O[C@H]1CCN(c2cc3nc(Nc4cnn(CC(F)F)c4Cl)ncc3cc2Cl)C1` [Ex-1.17, (3S)-1-(6-chloro-2-{[5-chloro-1-(2,2-difluoroethyl)-1H-pyrazol-4-yl]amino}quinazolin-7-yl)pyrrolidin-3-ol] was 9.26 nM; that for `OC1CN(c2cc3nc(Nc4cnn(CC(F)F)c4Cl)ncc3cc2Cl)C1` [Ex-1.18, 1-(6-chloro-2-{[5-chloro-1-(2,2-difluoroethyl)-1H-pyrazol-4-yl]amino}quinazolin-7-yl)azetidin-3-ol] was 18.9 nM; that for `OC[C@@H]1[C@H]2CN(c3cc4nc(Nc5cnn(CC(F)F)c5Cl)ncc4cc3Cl)C[C@@H]12` [Ex-1.19, [(1R,5S,6R)-3-(6-chloro-2-{[5-chloro-1-(2,2-difluoroethyl)-1H-pyrazol-4-yl]amino}quinazolin-7-yl)-3-azabicyclo[3.1.0]hexan-6-yl]methanol] was 4.87 nM.
In the case of `OC[C@H]1CCN(c2cc3nc(Nc4cnn(CC(F)F)c4Cl)ncc3cc2Cl)C1` [Ex-1.20, [(3S)-1-(6-chloro-2-{[5-chloro-1-(2,2-difluoroethyl)-1H-pyrazol-4-yl]amino}quinazolin-7-yl)pyrrolidin-3-yl]methanol] it was 8.23 nM; in that of `OC1CCN(c2cc3nc(Nc4cnn(CC(F)F)c4Cl)ncc3cc2Cl)CC1` [Ex-1.21, 1-(6-chloro-2-{[5-chloro-1-(2,2-difluoroethyl)-1H-pyrazol-4-yl]amino}quinazolin-7-yl)piperidin-4-ol], 6.09 nM; in that of `OC1CN(C2CCN(c3cc4nc(Nc5cnn(CC(F)F)c5Cl)ncc4cc3Cl)CC2)C1` [Ex-1.22, 1-[1-(6-chloro-2-{[5-chloro-1-(2,2-difluoroethyl)-1H-pyrazol-4-yl]amino}quinazolin-7-yl)piperidin-4-yl]azetidin-3-ol], 6.94 nM.
Consider `CN(C)[C@@H]1CCN(c2cc3nc(Nc4cnn(CC(F)F)c4Cl)ncc3cc2Cl)C1` [Ex-1.23, 6-chloro-N-[5-chloro-1-(2,2-difluoroethyl)-1H-pyrazol-4-yl]-7-[(3R)-3-(dimethylamino)pyrrolidin-1-yl]quinazolin-2-amine], for which the IC50 is 32.6 nM.
In the case of `Clc1cc2cnc(Nc3cnn(C4CC4)c3Cl)nc2cc1N1CCN(C2COC2)CC1` [Ex-1.24, 6-chloro-N-(5-chloro-1-cyclopropyl-1H-pyrazol-4-yl)-7-[4-(oxetan-3-yl)piperazin-1-yl]quinazolin-2-amine] it was 2.59 nM.
In the case of `FC1(F)CN(C2CCN(c3cc4nc(Nc5cnn(C6CC6)c5Cl)ncc4cc3Cl)CC2)C1` [Ex-1.25, 6-chloro-N-(5-chloro-1-cyclopropyl-1H-pyrazol-4-yl)-7-[4-(3,3-difluoroazetidin-1-yl)piperidin-1-yl]quinazolin-2-amine] it was 4.33 nM; in that of `Clc1cc2cnc(Nc3cnn(C4CC4)c3Cl)nc2cc1N1CCn2cnnc2C1` [Ex-1.26, 6-chloro-N-(5-chloro-1-cyclopropyl-1H-pyrazol-4-yl)-7-(5,6-dihydro[1,2,4]triazolo[4,3-a]pyrazin-7(8H)-yl)quinazolin-2-amine], 1.49 nM.
The value for `FC1CN(C2CCN(c3cc4nc(Nc5cnn(C6CC6)c5Cl)ncc4cc3Cl)CC2)C1` [Ex-1.27, 6-chloro-N-(5-chloro-1-cyclopropyl-1H-pyrazol-4-yl)-7-[4-(3-fluoroazetidin-1-yl)piperidin-1-yl]quinazolin-2-amine] was 0.778 nM; that for `Clc1cc2cnc(Nc3cnn(C4CC4)c3Cl)nc2cc1N1CCC(N2CCC2)CC1` [Ex-1.28, 7-[4-(azetidin-1-yl)piperidin-1-yl]-6-chloro-N-(5-chloro-1-cyclopropyl-1H-pyrazol-4-yl)quinazolin-2-amine] was 3.31 nM.
Take `N#CCCN1CCN(c2cc3nc(Nc4cnn(C5CC5)c4Cl)ncc3cc2Cl)CC1` [Ex-1.29, 3-(4-{6-chloro-2-[(5-chloro-1-cyclopropyl-1H-pyrazol-4-yl)amino]quinazolin-7-yl}piperazin-1-yl)propanenitrile]: the IC50 is 2.78 nM.
In the case of `CC(=O)N1CCN(c2cc3nc(Nc4cnn(C5CC5)c4Cl)ncc3cc2Cl)CC1` [Ex-1.30, 1-(4-{6-chloro-2-[(5-chloro-1-cyclopropyl-1H-pyrazol-4-yl)amino]quinazolin-7-yl}piperazin-1-yl)ethan-1-one] it was 7.16 nM; in that of `CC(C)(O)CN1CCN(c2cc3nc(Nc4cnn(C5CC5)c4Cl)ncc3cc2Cl)CC1` [Ex-1.31, 1-(4-{6-chloro-2-[(5-chloro-1-cyclopropyl-1H-pyrazol-4-yl)amino]quinazolin-7-yl}piperazin-1-yl)-2-methylpropan-2-ol], 10.1 nM.
The value for `CC1CN(c2cc3nc(Nc4cnn(C5CC5)c4Cl)ncc3cc2Cl)CCN1CC(C)(C)O` (centres unmarked) [Ex-1.32, 1-(4-{6-chloro-2-[(5-chloro-1-cyclopropyl-1H-pyrazol-4-yl)amino]quinazolin-7-yl}-2-methylpiperazin-1-yl)-2-methylpropan-2-ol] was 5.49 nM; that for `Clc1cc2cnc(Nc3cnn(C4CC4)c3Cl)nc2cc1N1C[C@@H]2C[C@H]1CN2C1COC1` [Ex-1.33, 6-chloro-N-(5-chloro-1-cyclopropyl-1H-pyrazol-4-yl)-7-[(1S,4S)-5-(oxetan-3-yl)-2,5-diazabicyclo[2.2.1]heptan-2-yl]quinazolin-2-amine] was 26.1 nM.
For `CC1(O)CCN(c2cc3nc(Nc4cnn(C5CC5)c4Cl)ncc3cc2Cl)CC1` [Ex-1.34, 1-{6-chloro-2-[(5-chloro-1-cyclopropyl-1H-pyrazol-4-yl)amino]quinazolin-7-yl}-4-methylpiperidin-4-ol], the IC50 was 1.39 nM.
`OC1C2CC1CN(c1cc3nc(Nc4cnn(C5CC5)c4Cl)ncc3cc1Cl)C2` (centres unmarked) [Ex-1.35, 3-{6-chloro-2-[(5-chloro-1-cyclopropyl-1H-pyrazol-4-yl)amino]quinazolin-7-yl}-3-azabicyclo[3.1.1]heptan-6-ol]: the IC50 is 3.48 nM.
On to `C[C@]1(O)[C@@H]2CC[C@H]1CN(c1cc3nc(Nc4cnn(C5CC5)c4)ncc3cc1Cl)C2` [Ex-1.36, (8-syn)-3-{6-chloro-2-[(1-cyclopropyl-1H-pyrazol-4-yl)amino]quinazolin-7-yl}-8-methyl-3-azabicyclo[3.2.1]octan-8-ol], for which the IC50 was 6.72 nM.
In the case of `OC1CN(C2CCN(c3cc4nc(Nc5cnn(C6CC6)c5Cl)ncc4cc3Cl)CC2)C1` [Ex-1.37, 1-(1-{6-chloro-2-[(5-chloro-1-cyclopropyl-1H-pyrazol-4-yl)amino]quinazolin-7-yl}piperidin-4-yl)azetidin-3-ol] it was 1.71 nM; in that of `CC1(O)CCN(c2cc3nc(Nc4cnn(C5CC5)c4Cl)ncc3cc2Cl)C1` (centres unmarked) [Ex-1.38, 1-{6-chloro-2-[(5-chloro-1-cyclopropyl-1H-pyrazol-4-yl)amino]quinazolin-7-yl}-3-methylpyrrolidin-3-ol], 9.77 nM; in that of `C[C@]1(O)[C@@H]2CC[C@H]1CN(c1cc3nc(Nc4cnn(C5CC5)c4Cl)ncc3cc1Cl)C2` [Ex-1.40, (8-syn)-3-{6-chloro-2-[(5-chloro-1-cyclopropyl-1H-pyrazol-4-yl)amino]quinazolin-7-yl}-8-methyl-3-azabicyclo[3.2.1]octan-8-ol], 11.2 nM.
In the case of `CC1(O)C2CC1CN(c1cc3nc(Nc4cnn(C5CC5)c4Cl)ncc3cc1Cl)C2` (centres unmarked) [Ex-1.41, 3-{6-chloro-2-[(5-chloro-1-cyclopropyl-1H-pyrazol-4-y)amino]quinazolin-7-yl}-6-methyl-3-azabicyclo[3.1.1]heptan-6-ol] it was 8.93 nM; in that of `CN1CCC2CCN(c3cc4nc(Nc5cnn(C6CC6)c5Cl)ncc4cc3Cl)C2C1` (centres unmarked) [Ex-1.42, 6-chloro-N-(5-chloro-1-cyclopropyl-1H-pyrazol-4-yl)-7-(6-methyloctahydro-1H-pyrrolo[2,3-c]pyridin-1-yl)quinazolin-2-amine], 25.6 nM.
The value for `CC1CN(C2CCN(c3cc4nc(Nc5cnn(C6CC6)c5Cl)ncc4cc3Cl)CC2)C1` [Ex-1.43, 6-chloro-N-(5-chloro-1-cyclopropyl-1H-pyrazol-4-yl)-7-[4-(3-methylazetidin-1-yl)piperidin-1-yl]quinazolin-2-amine] was 12.7 nM; that for `Clc1cc2cnc(Nc3cnn(C4CC4)c3Cl)nc2cc1N1CCC(N2CCCC2)CC1` [Ex-1.44, 6-chloro-N-(5-chloro-1-cyclopropyl-1H-pyrazol-4-yl)-7-[4-(pyrrolidin-1-yl)piperidin-1-yl]quinazolin-2-amine] was 22.3 nM; that for `Cc1c(Nc2ncc3ccc(N(C)C4COC4)cc3n2)cnn1C1CCOCC1` [Ex-1.47, N-7-methyl-N-2-[5-methyl-1-(oxan-4-yl)-1H-pyrazol-4-yl]-N-7-(oxetan-3-yl)quinazoline-2,7-diamine] was 38.8 nM.
On to `Cc1c(Nc2ncc3ccc(N4C(=O)OC[C@@H]4C)cc3n2)cnn1C1CCOCC1` [Ex-1.48, (4S)-4-methyl-3-(2-{[5-methyl-1-(oxan-4-yl)-1H-pyrazol-4-yl]amino}quinazolin-7-yl)-1,3-oxazolidin-2-one], for which the IC50 was 0.625 nM.
The value for `Cc1cc2cnc(Nc3cnn(C)c3C)nc2cc1N1CCN([C@]2(C)COC[C@@H]2O)CC1` [Ex-2.1, (3R,4R)-4-(4-(2-((1,5-Dimethyl-1H-pyrazol-4-yl)amino)-6-methylquinazolin-7-yl)piperazin-1-yl)-4-methyltetrahydrofuran-3-ol] was 0.576 nM.

Values taken from patent US20230303540A1 (Merck Sharp & Dohme LLC, priority 2020, published 2023).
